In brackets after ≈: the same amount, converted by molar mass.
Assays:
Progesterone receptor = target: T1, Progesterone receptor (Homo sapiens, UniProt P06401); assay: Binding affinity to recombinant human progesterone receptor expressed in baculovirus infected sf9 cells
T1 sequence (P06401 whole entry): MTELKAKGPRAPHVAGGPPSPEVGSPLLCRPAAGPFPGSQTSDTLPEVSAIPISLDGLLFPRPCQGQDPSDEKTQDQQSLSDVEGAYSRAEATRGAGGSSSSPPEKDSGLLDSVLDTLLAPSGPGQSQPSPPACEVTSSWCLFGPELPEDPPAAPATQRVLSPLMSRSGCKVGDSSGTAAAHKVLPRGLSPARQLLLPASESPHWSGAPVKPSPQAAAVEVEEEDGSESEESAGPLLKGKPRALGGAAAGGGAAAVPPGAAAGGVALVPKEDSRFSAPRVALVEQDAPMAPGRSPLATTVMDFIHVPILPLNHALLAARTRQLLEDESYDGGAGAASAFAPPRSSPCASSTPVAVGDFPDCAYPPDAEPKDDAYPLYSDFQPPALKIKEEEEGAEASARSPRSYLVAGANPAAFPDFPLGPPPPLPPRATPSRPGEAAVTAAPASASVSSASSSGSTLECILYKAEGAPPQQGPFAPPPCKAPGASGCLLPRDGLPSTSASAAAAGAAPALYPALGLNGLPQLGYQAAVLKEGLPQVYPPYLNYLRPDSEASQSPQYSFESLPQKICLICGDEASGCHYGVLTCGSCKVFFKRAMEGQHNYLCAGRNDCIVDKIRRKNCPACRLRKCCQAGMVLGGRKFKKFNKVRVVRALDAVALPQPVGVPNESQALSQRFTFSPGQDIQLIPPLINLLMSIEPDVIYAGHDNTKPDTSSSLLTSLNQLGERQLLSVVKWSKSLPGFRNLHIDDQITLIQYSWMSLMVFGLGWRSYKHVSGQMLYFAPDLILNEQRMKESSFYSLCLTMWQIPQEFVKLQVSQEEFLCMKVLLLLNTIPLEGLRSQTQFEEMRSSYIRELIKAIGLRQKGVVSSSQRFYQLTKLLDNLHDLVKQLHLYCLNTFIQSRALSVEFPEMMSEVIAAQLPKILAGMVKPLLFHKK

[1] = target: T2, Mineralocorticoid receptor (Homo sapiens, UniProt P08235); assay: Binding affinity to recombinant human mineralocorticoid receptor expressed in baculovirus infected sf9 cells
T2 sequence (P08235 whole entry): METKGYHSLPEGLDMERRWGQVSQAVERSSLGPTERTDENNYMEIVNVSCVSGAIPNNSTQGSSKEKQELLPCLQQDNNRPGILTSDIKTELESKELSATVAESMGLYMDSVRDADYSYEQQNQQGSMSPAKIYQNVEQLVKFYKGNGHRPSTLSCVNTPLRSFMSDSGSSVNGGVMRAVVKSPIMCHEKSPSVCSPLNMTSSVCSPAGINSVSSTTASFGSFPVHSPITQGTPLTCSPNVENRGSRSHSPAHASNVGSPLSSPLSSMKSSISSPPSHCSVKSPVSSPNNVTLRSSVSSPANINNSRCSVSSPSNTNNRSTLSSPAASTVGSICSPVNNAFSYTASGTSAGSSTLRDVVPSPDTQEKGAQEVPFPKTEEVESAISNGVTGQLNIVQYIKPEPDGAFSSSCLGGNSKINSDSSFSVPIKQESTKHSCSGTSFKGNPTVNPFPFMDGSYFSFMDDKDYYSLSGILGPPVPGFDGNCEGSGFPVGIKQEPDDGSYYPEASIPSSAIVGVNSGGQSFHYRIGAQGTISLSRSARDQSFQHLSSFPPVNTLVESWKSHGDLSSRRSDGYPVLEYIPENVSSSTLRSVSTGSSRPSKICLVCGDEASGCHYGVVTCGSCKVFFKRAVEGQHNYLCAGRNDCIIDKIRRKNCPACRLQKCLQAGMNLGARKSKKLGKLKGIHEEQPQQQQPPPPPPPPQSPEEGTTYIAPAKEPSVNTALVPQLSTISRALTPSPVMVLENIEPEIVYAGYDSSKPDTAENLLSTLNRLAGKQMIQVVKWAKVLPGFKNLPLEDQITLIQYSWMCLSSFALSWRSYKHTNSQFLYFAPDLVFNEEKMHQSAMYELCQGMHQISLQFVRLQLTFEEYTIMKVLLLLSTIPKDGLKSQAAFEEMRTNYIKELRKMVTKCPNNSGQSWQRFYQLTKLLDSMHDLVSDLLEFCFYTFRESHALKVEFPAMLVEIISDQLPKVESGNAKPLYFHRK

Androgen receptor = target: T3, Androgen receptor (Homo sapiens, UniProt P10275); assay: Binding affinity to recombinant human androgen receptor expressed in baculovirus infected sf9 cells
T3 sequence (P10275 whole entry): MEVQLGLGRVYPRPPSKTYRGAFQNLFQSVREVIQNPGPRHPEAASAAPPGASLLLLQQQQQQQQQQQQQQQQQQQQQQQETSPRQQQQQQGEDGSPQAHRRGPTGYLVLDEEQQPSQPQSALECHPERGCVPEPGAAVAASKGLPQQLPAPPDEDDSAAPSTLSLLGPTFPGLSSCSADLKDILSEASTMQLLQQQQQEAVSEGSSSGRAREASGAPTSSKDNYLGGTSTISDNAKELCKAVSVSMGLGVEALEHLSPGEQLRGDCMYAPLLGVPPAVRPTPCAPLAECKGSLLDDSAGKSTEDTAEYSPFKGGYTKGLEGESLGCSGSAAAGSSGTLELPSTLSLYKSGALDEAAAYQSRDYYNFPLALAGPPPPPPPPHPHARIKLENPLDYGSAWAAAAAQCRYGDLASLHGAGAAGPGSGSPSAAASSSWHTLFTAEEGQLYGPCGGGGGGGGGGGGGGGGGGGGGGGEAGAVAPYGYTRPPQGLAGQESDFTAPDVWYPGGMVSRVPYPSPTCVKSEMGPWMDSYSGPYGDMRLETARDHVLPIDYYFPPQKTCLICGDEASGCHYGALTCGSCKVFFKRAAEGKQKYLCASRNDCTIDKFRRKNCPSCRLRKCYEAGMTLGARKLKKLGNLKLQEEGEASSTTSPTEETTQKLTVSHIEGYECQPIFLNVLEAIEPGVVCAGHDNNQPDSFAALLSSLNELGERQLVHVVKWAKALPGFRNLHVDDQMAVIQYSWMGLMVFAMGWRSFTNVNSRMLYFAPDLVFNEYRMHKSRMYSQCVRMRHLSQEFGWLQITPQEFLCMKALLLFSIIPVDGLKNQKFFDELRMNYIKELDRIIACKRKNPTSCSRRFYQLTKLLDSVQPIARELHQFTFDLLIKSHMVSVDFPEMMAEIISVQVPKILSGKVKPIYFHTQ

Glucocorticoid receptor [2] = target: T4, Glucocorticoid receptor (Homo sapiens, UniProt P04150); assay: Transrepression activity at glucocorticoid receptorin human HeLa cells assessed as inhibition of TPA-induced collagenase promoter activity by luciferase reporter gene assay; type: cell-based
T4 sequence (P04150 whole entry): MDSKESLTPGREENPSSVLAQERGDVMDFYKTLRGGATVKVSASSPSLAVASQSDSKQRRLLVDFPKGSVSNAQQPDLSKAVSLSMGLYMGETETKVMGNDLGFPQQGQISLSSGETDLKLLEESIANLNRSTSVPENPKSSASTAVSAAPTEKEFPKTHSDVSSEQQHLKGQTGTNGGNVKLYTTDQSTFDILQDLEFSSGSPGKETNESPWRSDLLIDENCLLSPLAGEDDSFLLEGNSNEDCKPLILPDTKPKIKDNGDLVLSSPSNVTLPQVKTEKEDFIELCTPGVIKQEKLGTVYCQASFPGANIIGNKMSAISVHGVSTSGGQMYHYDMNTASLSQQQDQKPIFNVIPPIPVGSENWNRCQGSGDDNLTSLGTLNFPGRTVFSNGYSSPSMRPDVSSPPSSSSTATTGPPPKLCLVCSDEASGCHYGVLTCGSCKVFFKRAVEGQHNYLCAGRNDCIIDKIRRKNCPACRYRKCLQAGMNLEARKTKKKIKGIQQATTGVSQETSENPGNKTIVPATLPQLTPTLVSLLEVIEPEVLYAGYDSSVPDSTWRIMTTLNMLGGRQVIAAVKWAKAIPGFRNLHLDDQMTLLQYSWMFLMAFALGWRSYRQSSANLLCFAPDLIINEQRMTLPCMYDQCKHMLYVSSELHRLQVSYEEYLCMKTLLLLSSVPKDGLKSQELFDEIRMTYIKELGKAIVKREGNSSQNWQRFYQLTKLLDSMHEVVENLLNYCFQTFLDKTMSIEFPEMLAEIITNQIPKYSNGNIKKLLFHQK

Glucocorticoid receptor [3] = target: T4, Glucocorticoid receptor; assay: Transrepression activity at glucocorticoid receptor in human THP1 cells assessed as receptor-mediated anti-inflammatory activity by measuring inhibition of LPS-induced IL-8 production; type: cell-based
Glucocorticoid receptor [4] = target: T4, Glucocorticoid receptor; assay: Binding affinity to recombinant human glucocorticoid receptor expressed in baculovirus infected sf9 cells
Glucocorticoid receptor [5] = target: T4, Glucocorticoid receptor; assay: Transactivation activity at glucocorticoid receptor in human HeLa cells assessed as induction of MMTV promoter activity by luciferase reporter gene assay; type: cell-based
[6] = Stability in human liver microsomes assessed as drug recovery after 30 mins; type: ADME, microsome; details: read-out: Drug recovery
Rattus norvegicus [7] = assay: Anti-inflammatory activity in Wistar rat assessed as inhibition of croton oil-induced ear edema at 30 mg/kg, po relative to control; type: functional
Rattus norvegicus [8] = assay: Anti-inflammatory activity in po dosed Wistar rat assessed as inhibition of croton oil-induced ear edema; type: functional
[9] = Oral bioavailability in rat at 10 mg/kg dosed as microcrystalline suspension; type: ADME, organism-based; details: in vivo
[10] = Half life in rat at 1.25 mg/kg, iv administered as bolus dose; type: ADME, organism-based; details: in vivo
[11] = Volume of distribution at steady state in rat at 1.25 mg/kg, iv administered as bolus dose; type: ADME, organism-based; details: in vivo, read-out: Vdss
Rattus norvegicus [12] = assay: Anti-inflammatory activity in Brown Norway rat assessed as inhibition of TMA-induced ear edema at 30 mg/kg, po relative to control; type: functional
[13] = Blood clearance in rat at 1.25 mg/kg, iv administered as bolus dose; type: ADME, organism-based; details: whole blood
[14] = Thermodynamic solubility of the compound in 0.1 M phosphate buffer at pH 7.4 at 25 degC; type: physicochemical; details: read-out: Therm_solubility
[15] = Lipophilicity, log P of the compound; type: physicochemical; details: octanol/water
Rattus norvegicus [16] = assay: Anti-inflammatory activity in po dosed Brown Norway rat assessed as inhibition of TMA-induced ear edema; type: functional

| SMILES | IC50 (Progesterone receptor) | IC50 [1] | IC50 (Androgen receptor) | IC50 (Glucocorticoid receptor [2]) | IC50 (Glucocorticoid receptor [3]) | IC50 (Glucocorticoid receptor [4]) | pEC50 (Glucocorticoid receptor [5]) | remaining at 0.5 h [6] | Imax (Rattus norvegicus [7]) | ED50 (Rattus norvegicus [8]) | bioavailability [9] | half-life [10] | Vd [11] | Imax (Rattus norvegicus [12]) | clearance [13] | solubility thermodynamic [14] | logP [15] | ED50 (Rattus norvegicus [16]) |
| --- | --- | --- | --- | --- | --- | --- | --- | --- | --- | --- | --- | --- | --- | --- | --- | --- | --- | --- |
| CC[C@@H]1C[C@](O)(C(F)(F)F)[C@@H](Nc2cccc3[nH]c(=O)ccc23)c2cc(F)c(F)c(O)c21 | > 1 µM | > 1 µM | > 1 µM |  |  |  |  |  |  |  |  |  |  |  |  |  |  |  |
| Cc1ccc2c(N[C@H]3c4ccc(F)c(O)c4[C@H](C)C[C@]3(O)C(F)(F)F)cccc2n1 | > 1 µM | > 1 µM | > 1 µM | 0.02 µM | 0.02 µM | 0.0158 µM | 7.4 |  |  |  |  |  |  |  |  |  |  |  |
| Cc1ccc2c(NCC(O)(CC(C)(C)c3cc(F)ccc3O)C(F)(F)F)cccc2n1 (stereo not given) |  |  |  |  |  |  | 7.9 | 31% |  |  |  |  |  |  |  |  |  |  |
| CC(C)(CC(O)(CNc1cccc2c(=O)[nH]ccc12)C(F)(F)F)c1cccc(F)c1O (stereo not given) | 0.2 µM | > 1 µM | > 1 µM | 0.00398 µM | 0.00398 µM | 0.00251 µM | 7.6 | 13% |  |  |  |  |  |  |  |  |  |  |
| CC[C@@H]1C[C@](O)(C(F)(F)F)[C@@H](Nc2cc(F)cc3nc(C)ncc23)c2ccc(F)c(O)c21 | > 1 µM | > 1 µM | > 1 µM | 0.00631 µM | 0.00631 µM | 0.126 µM | 7.6 | 98% | 124% | 1.4 mg/kg | 59% | 5.8 h | 11 L/kg | 55% | 26.7 mL/min/kg | 26 µg/mL (≈ 57.3 µM) | 4 | 1.3 mg/kg |
| C=C(C)C[C@@](O)([C@@H](Nc1cccc2c(=O)[nH]ccc12)c1cc(Br)ccc1O)C(F)(F)F (racemic) | 0.631 µM | > 1 µM | > 1 µM | 0.02 µM | 0.02 µM | 0.0631 µM | 6.8 |  |  |  |  |  |  |  |  |  |  |  |

Reference: ChEMBL document CHEMBL4041544, “Discovery of new selective glucocorticoid receptor agonist leads” (Bioorg Med Chem Lett, 2017)
